“Also recorded” adds a separate entry of the source. Square brackets hold non-standard residues; d marks the D form. Peptide text beside a SMILES is read from it.
Columns and labels:
Type in all cases: cell-based, human
[1] = system: FAPs from M^CT, FibM^CT and FibM^OP; experiment: COL7A1 immunostaining as a readout of ECM production in FAPs treated with ET-1 +/- antagonist; details: 3 days
Text: (§1) Human FAPs cells were isolated from muscle biopsies obtained during surgical procedures via Myobank, affiliated to EuroBioBank, after informed consent in accordance with European recommendations and French legislation (authorization AC-2019-3502). Human FAPs isolated here as the CD56 negative cell fraction (Périé, S. et al. 2006), are obtained from control skeletal muscle: M^CT, control fibrotic cricopharyngeal muscle (CPM): FibM^CT, OPMD fibrotic CPM with exacerbated levels of fibrosis: FibM^OP, and fibrotic muscle from inclusion body myositis patients: FibM^IBM. All tested fibrotic muscle are skeletal fibrotic muscle. These cells expressed predominantly PDGFRa, CD90 and CD105 known markers of Fibro/Adipogenic Progenitors (FAPs) in human skeletal muscle. The tissue type, cell type, age, pathological condition and muscle fibrotic state of each biopsy sample are specified in table below.
(§2) The muscle biopsies were finely minced and explants were plated onto non-coated Petri dishes in drops of fetal bovine serum (FBS) (Invitrogen, Carlsbad, CA) as previously described (Bigot et al., 2009). Cells were cultivated at 37° C. in a humid atmosphere containing 5% CO2 and in growth medium consisting of 199 medium (Life technologies, Paisley, UK) and Dulbecco's Modified Eagle Medium (DMEM, Life technologies) in a 1:4 ratio supplemented with 20% Fetal Bovine Serum (FBS, Invitrogen), 25 μg/ml fetuin (Life technologies), 0.5 ng/mL bFGF (Life technologies), 5 ng/ml EGF (Life technologies), 5 μg/mL insulin (Sigma-Aldrich) and 50 μg/mL gentamycin (Life Technologies). Cells were labelled with CD56 antibody coupled to microbeads (130-050-401, MACS; Miltenyi Biotec, Paris, France) and then separated using a immunomagnetic cell sorting system (MACS) according to the manufacturer's instructions. The myogenic purity of both cell fractions (CD56+, myogenic and CD56−, non-myogenic) was monitored by immunocytochemistry using an antibody against desmin (clone D33, Dako, Trappes, France), exclusively expressed in myogenic cells.
The method for quantification of ET-1 protein is described in Le Bihan et al. 2012. Treatment of FAPs to evaluate the effect of ET-1 was performed on 70-80% confluence cells that were rinsed twice with DMEM and treated 3 days with proliferation medium at 1% FBS (instead of 20%) containing either DMSO or 40 nM ET-1 (E7764, Sigma-Aldrich)+/−10 μM Bosentan (SML1265, Sigma Aldrich), 10 nM BQ788 (SML192621, Sigma Aldrich), or 10 nM BQ123 (B150, Sigma-Aldrich). For proliferation experiment, Edu (10 μM) was added at day 2 and cells were fixed 24 h later. EdU labeling was carried out using the Click-iT™ EdU Cell Proliferation Kit (C10338, Life Technologies) according to the manufacturer's instructions. […]

[2] = system: FAPs from M^CT, FibM^CT and FibM^OP; experiment: Edu proliferation of FAPs treated with ET-1 +/- antagonist; details: 3 days
Text: as §1
as §2, with “Cells were labelled with CD56 antibody coupled to microbeads (130-050-401, MACS; Miltenyi Biotec, Paris, France) and then separated using a immunomagnetic cell sorting system (MACS) according to the manufacturer's instructions.” left out
The method for quantification of ET-1 protein is described in Le Bihan et al. 2012. […]

[3] = system: myoblast cocultured with FAPs from FibM^OP; experiment: Coculture of myoblasts with FAPs from fibrotic muscle, fusion index; details: Bosentan 10 μM added at day 0 and day 3, fixed at day 5, myoblasts/FAPs 70%/30%
Description: Non-myogenic (CD56-) and myogenic (CD56+) cells were seeded together at a 30%/70% ratio and at a final confluence of 21000 cells/cm2. Once the cells have adhered, the medium was replaced by a differentiation medium composed by DMEM with 50 μg/mL gentamycin. To study the effect of Bosentan on the fusion index in coculture 10 μM of Bosentan (SML1265, Sigma Aldrich) was added to the wells at day 0 and day 3. Cells were fixed at day 5 in 4% paraformaldehyde (PFA). The fusion index was calculated as the ratio between the number of nuclei per myotube (>2 nuclei) identified by a desmin staining and the total number of desmin+nuclei. Immunostaining were performed on cells fixed in 4% PFA for 10 minutes (min) and incubated with blocking solution (PBS 2% FBS 0.2% Triton) for 30 minutes (min). Fixed cells were then incubated 1 h with primary antibodies (COL7A1 […] Sigma Aldrich 1/800; Desmin […] Dako 1/50). Detection of immune complexes was performed using the appropriate Alexa-Fluor-secondary antibodies purchased from Life Technologies (Grand Island, NY) for 45 min. Nuclei and actin filament were counterstained with Hoechst and Phalloidin-Alexa 568 (Interchim 1/400) respectively.

Compound: CC(C)C[C@@H]1NC(=O)[C@@H](C(C)C)NC(=O)[C@@H]2CCCN2C(=O)[C@@H](CC(=O)O)NC(=O)[C@@H](Cc2c[nH]c3ccccc23)NC1=O [BQ123] (cyclo(L[dW][dD]P[dV]))
- ECM production (percentage of COL7A1 positive cells) ([1]; ET-1 40 nM + antagonist 10 nM): decrease of ECM production

Compound: COc1ccccc1Oc1c(NS(=O)(=O)c2ccc(C(C)(C)C)cc2)nc(-c2ncccn2)nc1OCCO [Bosentan]
- proliferation (percentage of Edu positive cells) ([2]; ET-1 40 nM + Bosentan 10 μM): partially abolished the effect of ET1; also recorded: decrease of proliferation
- fusion index [3]: partially restored to control levels
- ECM production (percentage of COL7A1 positive cells) ([1]; ET-1 40 nM + Bosentan 10 μM): partially abolished the effect of ET1

Compound: CCCC[C@@H](NC(=O)[C@@H](Cc1cn(C(=O)OC)c2ccccc12)NC(=O)[C@H](CC(C)(C)C)NC(=O)N1[C@H](C)CCC[C@@H]1C)C(=O)O [BQ788]
- proliferation (percentage of Edu positive cells) ([2]; ET-1 40 nM + BQ788 10 nM): decrease of proliferation
- ECM production (percentage of COL7A1 positive cells) ([1]; ET-1 40 nM + antagonist 10 nM): decrease of ECM production

Compound: CC[C@H](C)[C@H](NC(=O)[C@H](CC(=O)O)NC(=O)[C@H](CC(C)C)NC(=O)[C@H](Cc1c[nH]cn1)NC(=O)[C@@H]1CSSC[C@H](N)C(=O)N[C@@H](CO)C(=O)N[C@H]2CSSC[C@H](NC(=O)[C@H](CCC(=O)O)NC(=O)[C@H](CCCCN)NC(=O)[C@H](CC(=O)O)NC(=O)[C@H](CCSC)NC(=O)[C@H](CC(C)C)NC(=O)[C@H](CO)NC(=O)[C@H](CO)NC2=O)C(=O)N[C@@H](C(C)C)C(=O)N[C@@H](Cc2ccc(O)cc2)C(=O)N[C@@H](Cc2ccccc2)C(=O)N1)C(=O)N[C@H](C(=O)N[C@@H](Cc1c[nH]c2ccccc12)C(=O)O)[C@@H](C)CC [ET1]
- proliferation (percentage of Edu positive cells) ([2]; ET-1 40 nM, vs DMSO): increased
- ECM production (percentage of COL7A1 positive cells) ([1]; ET-1 40 nM, vs DMSO): increased
